The test system of experiment [1] is Septoria tritici (SEPTTR; Mycosphaerella graminicola). The experiment can be described thus: 1-day protectant (1DP) test vs. leaf blotch of wheat, fungicide applied 1 day before inoculation. Format: in vivo, Septoria tritici on wheat plants (variety Yuma). The conditions noted are these: Zymoseptoria tritici, read-out: % DC Obs (percent disease control observed). As to the method:
(§1) Evaluation of Curative and Protectant Activity of Fungicide Mixtures vs. Leaf Blotch of Wheat (Mycosphaerella graminicola; anamorph: Septoria tritici; Bayer code: SEPTTR)
(§2) Wheat plants (variety Yuma) were grown from seed in a greenhouse in plastic pots with a surface area of 27.5 square centimeters (cm2) containing 50% mineral soil/50% soil-less Metro mix, with 8-12 seedlings per pot. The plants were employed for testing when the first leaf was fully emerged, which typically took 7 to 8 days after planting. Test plants were inoculated with an aqueous spore suspension of Septoria tritici either 3 days prior to (3-day curative test; 3DC) or 1 day after fungicide treatments (1-day protectant test; 1DP). After inoculation the plants were kept at 100% relative humidity (one day in a dark dew chamber followed by two days in a lighted mist chamber) to permit spores to germinate and infect the leaf. The plants were then transferred to a greenhouse until disease symptoms were fully expressed.
(§3) Treatments consisted of fungicides, including a compound of Formula I, epoxiconazole, prothioconazole, azoxystrobin, pyraclostrobin, penthiopyrad, isopyrazam, bixafen, boscalid, chlorothalonil and isobutyric acid (3S,6S,7R,8R)-8-benzyl-3-[(3-isobutyryloxymethoxy-4-methoxypyridine-2-carbonyl)-amino]-6-methyl-4,9-dioxo-[1,5]dioxonan-7-yl ester (compound A), applied either individually or as two-way mixtures with a compound of Formula I. 1% of water solution of a compound with Formula I was used in the tests. Technical grades of other materials were dissolved in acetone to make stock solutions, which were then used to perform three-fold dilutions in acetone either for each individual fungicide component or for the two-way mixtures. Desired fungicide rates were obtained after mixing dilutions with nine volumes of water containing 110 parts per million (ppm) Triton X-100. Ten milliliter (mL) fungicide solutions were applied onto six pots of plants using an automated booth sprayer, which utilized two 6218-1/4 JAUPM spray nozzles operating at 20 pounds per square inch (psi) set at opposing angles to cover both leaf surfaces. All sprayed plants were allowed to air dry prior to further handling. Control plants were sprayed in the same manner with the solvent blank.
(§4) When disease reached 80 to 100% on the control plants, infection levels were assessed on treated plants visually and scored on a scale of 0 to 100 percent. Percentage of disease control was then calculated using the ratio of disease on treated plants relative to control plants.
(§5) Colby's equation was used to determine the fungicidal effects expected from the mixtures. (See Colby, S. R. Calculation of the synergistic and antagonistic response of herbicide combinations. Weeds 1967, 15, 20-22.)
(§6) The following equation was used to calculate the expected activity of mixtures containing two active ingredients, A and B:
(§7) A=observed efficacy of active component A at the same concentration as used in the mixture;
(§8) B=observed efficacy of active component B at the same concentration as used in the mixture.

The test system is the same in experiment [2]. The experiment can be described thus: 3-day curative (3DC) test vs. leaf blotch of wheat, inoculation 3 days before fungicide treatment. Format: in vivo, Septoria tritici on wheat plants (variety Yuma). The conditions noted are these: Zymoseptoria tritici, read-out: % DC Obs (percent disease control observed); for pest or weed control at 1.8 ppm: applied alone at 1.8 ppm; for pest or weed control at 0.6 ppm: applied alone at 0.6 ppm. The method, then: as §1, §2, §3, §4, §5, §6, §7, §8

[3] abbreviates: 1DP SEPTTR, applied alone at 0.6 ppm.
Where [4] appears, read: 1DP SEPTTR, applied alone at 1.8 ppm.

With `CC(C)CC(C)c1sccc1NC(=O)c1cn(C)nc1C(F)(F)F` (stereo not drawn) [Penthiopyrad, N-[2-(1,3-dimethylbutyl)-3-thienyl]-1-methyl-3-(trifluoromethyl)-1H-pyrazole-4-carboxamide], in experiment [1] (setting [3]), the pest or weed control at 0.6 ppm was 7%. Also, the values for the pest or weed control at 1.8 ppm in experiment [1] (setting [4]) and in experiment [2] (3DC SEPTTR) were 30% and 24%, respectively.

Regarding `N#Cc1c(Cl)c(Cl)c(Cl)c(C#N)c1Cl` [Chlorothalonil, 2,4,5,6-tetrachloro-1,3-benzenedicarbonitrile], the pest or weed control at 13.5 ppm in experiment [1] (1DP SEPTTR, applied alone at 13.5 ppm) turned out to be 13%; in experiment [2] (3DC SEPTTR, applied alone at 13.5 ppm) it was 0%. In addition, the pest or weed control at 42 ppm in experiment [1] (1DP SEPTTR, applied alone at 42 ppm) was 8%; in experiment [2] (3DC SEPTTR, applied alone at 42 ppm), 0%.

With `CO/C=C(/C(=O)OC)c1ccccc1Oc1cc(Oc2ccccc2C#N)ncn1` [Azoxystrobin, methyl (αE)-2-[[6-(2-cyanophenoxy)-4-pyrimidinyl]oxy]-α-(methoxymethylene)benzeneacetate], the pest or weed control at 0.6 ppm in experiment [1] (setting [3]) came to 21%; in experiment [2] (3DC SEPTTR), 22%. For the same compound, the pest or weed control at 1.8 ppm in experiment [1] (setting [4]) was 32%; in experiment [2] (3DC SEPTTR), 59%.

As for `COc1ccnc(C(=O)N[C@H]2COC(=O)[C@H](Cc3ccccc3)[C@@H](OC(=O)C(C)C)[C@H](C)OC2=O)c1OCOC(=O)C(C)C` [Compound A, Isobutyric acid (3S,6S,7R,8R)-8-benzyl-3-[(3-isobutyryloxymethoxy-4-methoxy-pyridine-2-carbonyl)-amino]-6-methyl-4,9-dioxo-[1,5]dioxonan-7-yl ester], in experiment [2], the pest or weed control at 1.35 ppm was 6%.

`Fc1ccc([C@]2(Cn3cncn3)O[C@H]2c2ccccc2Cl)cc1` (racemic) [Epoxiconazole, rel-1-[[(2R,3S)-3-(2-chlorophenyl)-2-(4-fluorophenyl)oxiranyl]methyl]-1H-1,2,4-triazole]: the pest or weed control at 0.0375 ppm in experiment [1] (1DP SEPTTR, applied alone at 0.0375 ppm) came out at 15%. The pest or weed control at 0.125 ppm in experiment [1] (1DP SEPTTR, applied alone at 0.125 ppm) worked out at 27%.

On to `CC(C)C1C2CCC1c1c(NC(=O)c3cn(C)nc3C(F)F)cccc12` (stereo not drawn) [Isopyrazam, 3-(difluoromethyl)-1-methyl-N-[1,2,3,4-tetrahydro-9-(1-methylethyl)-1,4-methanonaphthalen-5-yl]-1H-pyrazole-4-carboxamide], for which, in experiment [1], the pest or weed control at 0.06 ppm is 5%, the pest or weed control at 0.2 ppm came to 9% and the pest or weed control at 0.6 ppm turned out to be 19%. Moreover, the pest or weed control at 0.06 ppm in experiment [2] was 22%.

Take `OC(Cc1ccccc1Cl)(Cn1[nH]cnc1=S)C1(Cl)CC1` (stereo not drawn) [Prothioconazole, 2-[2-(1-chlorocyclopropyl)-3-(2-chlorophenyl)-2-hydroxypropyl]-1,2-dihydro-3H-1,2,4-triazole-3-thione]: the values for the pest or weed control at 0.6 ppm in experiment [1] (setting [3]) and in experiment [2] (3DC SEPTTR) were 18% and 12%, respectively. Besides, the pest or weed control at 1.8 ppm in experiment [1] (setting [4]) and in experiment [2] (3DC SEPTTR) was 25% throughout.

As to `Nc1nc(O)ncc1F` [Compound I, 5-FLUOROCYTOSINE], the pest or weed control at 0.03 ppm in experiment [1] (1DP SEPTTR, applied alone at 0.03 ppm) was 13%; in experiment [2] (3DC SEPTTR, applied alone at 0.03 ppm) it was 4%. The pest or weed control at 0.1 ppm in experiment [1] (1DP SEPTTR, applied alone at 0.1 ppm) was 11%; in experiment [2] (3DC SEPTTR, applied alone at 0.1 ppm), 33%. The pest or weed control at 0.3 ppm in experiment [1] (1DP SEPTTR, applied alone at 0.3 ppm) came out at 8%; in experiment [2] (3DC SEPTTR, applied alone at 0.3 ppm), 67%. Moreover, the pest or weed control at 0.9 ppm in experiment [1] (1DP SEPTTR, applied alone at 0.9 ppm) was 18%; in experiment [2] (3DC SEPTTR, applied alone at 0.9 ppm), 75%. For the same compound, the pest or weed control at 2.8 ppm in experiment [1] (1DP SEPTTR, applied alone at 2.8 ppm) was determined as 79%; in experiment [2] (3DC SEPTTR, applied alone at 2.8 ppm) it was 94%.

Regarding `Cn1cc(C(=O)Nc2ccc(F)cc2-c2ccc(Cl)c(Cl)c2)c(C(F)F)n1` [Bixafen, N-(3′,4′-dichloro-5-fluoro[1,1′-biphenyl]-2-yl)-3-(difluoromethyl)-1-methyl-1H-pyrazole-4-carboxamide], in experiment [1], the pest or weed control at 0.6 ppm was 14% and the pest or weed control at 1.8 ppm amounted to 71%.

For `O=C(Nc1ccccc1-c1ccc(Cl)cc1)c1cccnc1Cl` [Boscalid, 2-chloro-N-(4′-chloro[1,1′-biphenyl]-2-yl)-3-pyridinecarboxamide], the results for the pest or weed control at 1.8 ppm in experiment [1] (setting [4]) and in experiment [2] (3DC SEPTTR) were 9% and 8%, respectively.

Values taken from US20110082162A1, “SYNERGISTIC FUNGICIDAL COMPOSITION CONTAINING 5-FLUOROCYTOSINE FOR FUNGAL CONTROL IN CEREALS” (DOW AGROSCIENCES LLC, priority 2009, published 2011).
